Molecules are shown by their SMILES.

For the assay, the system named is IFNα-induced STAT phosphorylation (pSTAT5) in human whole blood, CD3 positive population. The assay is described as follows: IFNα-Induced STAT Phosphorylation in Human Whole Blood. Format: cell-based. The following applies: 1 h incubation with compound, 1000 U/mL recombinant human IFNα A/D for 15 min, pSTAT5 (pY694) median fluorescence in CD3 positive cells, read-out: Human WB IFNα-Induced Stat Phosph. (IC50). The method, then: IFNα-Induced STAT Phosphorylation in Human Whole Blood
After an hour long incubation with compound, human whole blood (drawn with either EDTA or ACD-A as anti-coagulant) was stimulated with 1000 U/mL recombinant human IFNα A/D (R&D Systems 11200-2) for 15 min. The stimulation was stopped by adding Fix/Lyse buffer (BD 558049). Cells were stained with a CD3 FITC antibody (BD 555916), washed, and permeabilized on ice using Perm III buffer (BD 558050). Cells were then stained with an Alexa-Fluor 647 pSTAT5 (pY694) antibody (BD 612599) for 30 min prior to analysis on the FACS Canto II. The amount of pSTAT5 expression was quantitated by median fluorescence intensity after gating on the CD3 positive population.
As a reminder, the IC50 is the point on the concentration scale where inhibition reaches its midpoint. In the case of `[2H]C([2H])([2H])NC(=O)c1nnc(NC(=O)NC(C)CC)cc1Nc1cccc(-c2ncn(C)n2)c1OC` (centres unmarked) [Example 48], the IC50 amounted to 0.2 µM. With `[2H]C([2H])([2H])NC(=O)c1cnc(NC(=O)OCC)cc1Nc1cccc(-c2ncn(C)n2)c1OC` [Example 29] the figure was 0.11 µM; with `[2H]C([2H])([2H])NC(=O)c1nnc(NC(=O)OC)cc1Nc1cccc(-c2noc(CN(C)S(C)(=O)=O)n2)c1OC` [Example 62], 0.1 µM. Then `[2H]C([2H])([2H])NC(=O)c1cnc(NC(=O)NCCOC)cc1Nc1cccc(-c2noc(C)n2)c1OC` [Example 76], with 0.16 µM; and `[2H]C([2H])([2H])NC(=O)c1cnc(NC(=O)OCC)cc1Nc1cccc(-c2noc(C)n2)c1OC` [Example 8], with 0.3 µM. With `COC(=O)Nc1cc(Nc2cccc(-c3noc(CN4CCN(S(C)(=O)=O)CC4)n3)c2OC)c(C(N)=O)nn1` [Example 64] the figure was 0.1 µM; with `[2H]C([2H])([2H])NC(=O)c1nnc(NC(=O)NCc2ccccc2)cc1Nc1cccc(-c2ncn(C)n2)c1OC` [Example 40], 0.29 µM; with `[2H]C([2H])([2H])NC(=O)c1nnc(NC(=O)OC)cc1Nc1cccc(-c2ncc(C(=O)N(C)C)s2)c1OC` [Example 53], 0.84 µM. Turning to `[2H]C([2H])([2H])NC(=O)c1nnc(NC(=O)OC)cc1Nc1cccc(-c2noc(CN3CCN(S(C)(=O)=O)CC3)n2)c1OC` [Example 66], the IC50 stood at 0.13 µM. For `[2H]C([2H])([2H])NC(=O)c1nnc(NC(=O)NC2CCCCC2)cc1Nc1cccc(-c2ncn(C)n2)c1OC` [Example 33], the IC50 was determined as 0.12 µM.

`[2H]C([2H])([2H])NC(=O)c1cnc(NC(=O)OCC)cc1Nc1cccc(-c2nnn(C)n2)c1OC` [Example 21]: the IC50 was 0.42 µM.

As for `[2H]C([2H])([2H])NC(=O)c1nnc(NC(=O)OC)cc1Nc1cccc(-c2noc(CO)n2)c1OC` [Example 58], the IC50 was 1.86 µM. Then `[2H]C([2H])([2H])NC(=O)c1nnc(NC(=O)NC)cc1Nc1cccc(-c2ncn(C)n2)c1OC` [Example 45], with 0.08 µM. With `[2H]C([2H])([2H])NC(=O)c1nnc(NC(=O)Nc2ccccn2)cc1Nc1cccc(-c2ncn(C)n2)c1OC` [Example 25] the figure was 1.18 µM. Then `[2H]C([2H])([2H])NC(=O)c1nnc(NC(=O)N2CCCCC2)cc1Nc1cccc(-c2ncn(C)n2)c1OC` [Example 12], with 0.61 µM; and `CNC(=O)c1cnc(NC(=O)Nc2ccccc2)cc1Nc1ccccc1S(C)(=O)=O` [Example 6, N-methyl-4-((2-(methylsulfonyl)phenyl)amino)-6-(3-phenylureido)nicotinamide], with more than 10 µM. As to `[2H]C([2H])([2H])NC(=O)c1nnc(NC(=O)NCC=C)cc1Nc1cccc(-c2ncn(C)n2)c1OC` [Example 37], the IC50 was determined as 0.06 µM.

Consider `CNC(=O)Nc1cc(Nc2ccccc2S(C)(=O)=O)c(C(=O)NC)cn1` [Example 10], for which the IC50 is 3.69 µM. Regarding `CCNC(=O)Nc1cc(Nc2ccccc2S(C)(=O)=O)c(C(=O)NC)cn1` [Example 9], the IC50 is 1.1 µM.

Regarding `[2H]C([2H])([2H])NC(=O)c1nnc(NC(=O)OC)cc1Nc1cccc(-c2noc(CN3CCOCC3)n2)c1OC` [Example 59], the IC50 turned out to be 0.29 µM.

The values are drawn from patent US20230150979A1, “AMIDE-DISUBSTITUTED PYRIDINE OR PYRIDAZINE COMPOUNDS” (BRISTOL-MYERS SQUIBB COMPANY, priority 2019, published 2023).
